Laboratory results as given in US4343816A, “Pharmaceutical composition comprising an acyl-carnitine, for treating peripheral vascular diseases” (priority 1979, dated 1982).

Columns and labels:
[1] = in vivo; conditions: mouse, iv
Excerpt: As is known, carnitine contains an asymetrical carbon atom and consequently exists in two stereoisomer forms.

[2] = Tolerance and toxicity (general statement); conditions: racemic mixture or separated optically active forms, whatever the route of administration

Compound	LD50 [1]	tolerance [2]
CC(O)CC(=O)OC(CC(=O)[O-])C[N+](C)(C)C (stereo not drawn) [hydroxybutyryl-carnitine]	745 mg/kg	
CC(=O)OC(CC(=O)[O-])C[N+](C)(C)C (stereo not drawn) [acetyl-carnitine]	770 mg/kg	excellent
C[N+](C)(C)CC(CC(=O)[O-])OC(=O)CCC(=O)O (stereo not drawn) [succinyl-carnitine]	780 mg/kg	
CC(C)CC(=O)OC(CC(=O)[O-])C[N+](C)(C)C (stereo not drawn) [isovaleryl-carnitine]	743 mg/kg	
CC(=O)CC(=O)OC(CC(=O)[O-])C[N+](C)(C)C (stereo not drawn) [acetoacetyl-carnitine]	728 mg/kg	
